# In PubChem BioAssay (NCI):
#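 Step 1: Grow cells in 96-well plates. Step 2: Expose to compound for 48 hours at 5 concentrations. Step 3: Interpolate endpoints linearly; if unreached, use highest concentration. GI50 = concentration required for 50% inhibition of growth. TGI marks complete inhibition of growth.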
# Tests used:
# Experiment in all cases: NCI-60 cell line screen, 48 h
# [1] = tested on: CCRF-CEM leukemia
# [2] = tested on: IGROV1 ovarian
# [3] = tested on: M14 melanoma
# [4] = tested on: MALME-3M melanoma
# [5] = tested on: NCI-H522 lung
# [6] = tested on: DLD-1 colon
# [7] = tested on: DMS 114 small cell lung
# [8] = tested on: DMS 273 small cell lung
# [9] = tested on: LXFL 529 NSCLC
# [10] = tested on: M19-MEL melanoma
# [11] = tested on: HOP-18 NSCLC
# [12] = tested on: KM20L2 colon
# [13] = tested on: SNB-78 CNS
SMILES,TGI [1] [µM],TGI [2] [µM],TGI [3] [µM],TGI [4] [µM],TGI [5] [µM],other results
CCC(c1ccc(OC)cc1)C1NC(=S)NC1=O (stereo unspecified),> 50,> 50,> 50,> 50,> 50,
C#C[C@]1(O)[C@@H](CO)O[C@@H](n2ccc(N)nc2=O)[C@@H]1O,4.27,> 38.1,3.06,0.925,0.0365,
CCOC(=O)C1(C#N)C(C#N)(C#N)C1(C#N)C#N,> 100,> 100,> 100,> 100,> 100,
NC(Cc1ccccc1)c1nn[nH]n1 (stereo unspecified),> 100,> 100,> 100,> 100,> 100,
CC(=O)OCC1OC(OC(C)=O)C(Nc2ncc(-c3ccc(C)cc3)s2)C(OC(C)=O)C1OC(C)=O (stereo unspecified),55,36.4,33.4,41.5,34.3,
COC(=O)c1ccc(C)cc1C1CN=NC12Cc1cc(C)ccc1C2=O (stereo unspecified),> 100,> 100,36.9,> 100,26.8,
O=C1CCCC2=C1CC1=C(CCCC1=O)N2c1ccc([N+](=O)[O-])cc1,> 100,> 100,> 100,,,
OCC1OC(n2cnc3c(SCc4ccccc4)ncnc32)C(O)C1O (stereo unspecified),3.55,> 100,> 100,> 100,> 100,
N#CCC1C2CC3C(C2=O)C13 (stereo unspecified),> 100,> 100,> 100,> 100,> 100,
COc1ccc(NS(=O)c2c(C)cc(C)cc2C)cc1 (stereo unspecified),> 100,> 100,> 100,49,> 100,
Nc1nc(Br)nc2ncn(C3CC(O)C(CO)O3)c12 (stereo unspecified),> 100,> 100,33.4,> 100,> 100,
CN1C(C)(C)CC(=O)C(Br)C1(C)C (stereo unspecified),> 100,> 100,> 100,> 100,> 100,
CCc1ccc(Nc2cc(=O)n(C)c(SCc3ccccc3)n2)cc1,> 100,> 100,> 100,> 100,> 100,
CC(=O)N=c1ccc2nc(N)nn(O)c-2c1,> 100,> 100,> 100,,> 100,
COC(=O)CC(CNC(=O)OCc1ccccc1)OCc1ccc(OC)cc1 (stereo unspecified),> 100,> 100,> 100,> 100,> 100,
COc1ccc(-n2c(Cn3nnc(-c4cccnc4)n3)nn(C3OC(COC(=O)c4ccccc4)C(OC(=O)c4ccccc4)C3OC(=O)c3ccccc3)c2=S)cc1 (stereo unspecified),> 100,> 100,> 100,> 100,> 100,
CN1c2ccccc2C(=O)NC12CCNCC2,> 100,> 100,> 100,> 100,,
Cc1ccc(C(=O)N2CCCCC2)cc1N=NN(C)C,> 100,> 100,> 100,> 100,> 100,TGI [6]: > 100 µM; TGI [7]: > 100 µM; TGI [8]: > 100 µM; TGI [9]: > 100 µM; TGI [10]: > 100 µM
O=C1CC(C(OCc2ccccc2)C(OCc2ccccc2)C(OCc2ccccc2)C(COCc2ccccc2)OCc2ccccc2)CC(=O)N1 (stereo unspecified),> 100,> 100,> 100,> 100,,
O=C(c1ccccc1)C(Nc1ccc2ccccc2c1)c1ccccc1 (stereo unspecified),51.2,> 100,> 100,> 94.8,> 67.3,
Cc1[nH]c2nc3c(ncn3COCCO)c(=O)n2c1C(c1ccccc1)(c1ccccc1)c1ccccc1,> 52.9,28.4,33.3,33.6,28.2,
CCCCCCCCCCCCCCCC(=O)Nc1ccn(C2CCC(COP(=O)(O)OCC3OC(n4cc(F)c(=O)[nH]c4=O)CC3OC(C)=O)O2)c(=O)n1 (stereo unspecified),19.7,> 100,28.1,53.3,27.7,

SMILES,TGI [1] [µM],TGI [2] [µM],TGI [3] [µM],TGI [4] [µM],TGI [5] [µM],other results
CC(C)CC(NC=O)C(=O)NC(Cc1ccccc1)NC(=O)CNC(=O)C(C)NC(=O)C(N)Cc1ccc(O)cc1 (stereo unspecified),,> 100,> 100,,> 100,
S=C(Nc1ccc2c(c1)oc1ccccc12)c1cccs1,> 100,> 100,> 100,,> 100,
O=C1Nc2ccccc2/C1=C\c1c(-c2ccccc2)nc2n1CCS2,> 100,> 100,87.9,74.1,51.7,
c1ccc2nn(C3CCCO3)nc2c1 (stereo unspecified),> 100,> 100,> 100,> 100,> 100,
CCOC(=O)C1=CNC(C(=O)OCC)C1c1cccn1-c1ccccc1 (stereo unspecified),77,> 100,> 100,,59.1,
Cn1nc(-c2ccccc2)c2c(-c3ccccc3)c3cc(Cl)ccc3nc21,> 100,> 100,> 100,> 100,> 100,
O=C(O)C1=CN(c2ccncc2)C(c2ccco2)=CC1c1ccccc1[N+](=O)[O-] (stereo unspecified),> 100,5.98,23.4,26.4,25.3,
CCCNCC(O)CNc1ccc(NCC(O)CNCCC)c2c1C(=O)c1ccccc1C2=O (stereo unspecified),4.35,7.87,11,11.3,7.81,
CC1CCC2CC1NC(=O)CCOCCC(=O)NC2(C)C (stereo unspecified),> 100,> 100,> 100,,> 100,
O=C1CCN2C(=N1)Sc1ccccc12,> 100,> 100,> 100,> 100,> 100,
CC[C@@H]1CC[C@@H]2[C@H](CC[C@]3(C)[C@@H](OC(C)=O)CC[C@@H]23)[C@H]1C(=O)OC,47.9,89.8,42.3,33.3,47.8,
CC(Cc1cccc2c1Nc1ccccc1S2)N(C)CCO (stereo unspecified),> 100,> 100,> 100,> 100,> 100,
COc1ccc2c(c1)-c1nc(=O)n(CCCN(C)C)c3ccc([N+](=O)[O-])c(c13)N2,3.87,12.3,3.69,3.28,1.93,
Nc1nc(N)c2ncn(-c3ccccc3)c2n1,> 100,> 100,> 100,> 100,> 100,
CCCCCCCc1cscc1-c1cscc1Br,40.3,> 100,> 100,> 100,61.9,
O=C1CCSc2nc(-c3ccc4c(c3)OCO4)nn21,> 10,> 10,> 10,> 10,> 10,
CCCn1c(=O)c2nn3c(=O)n(CCC)c(=O)c3nn2c1=O,> 100,> 100,> 100,> 100,> 100,
Cc1ccc(S(=O)(=O)ON2C(=O)c3c(N)c(C#N)c(-c4ccccc4)c(-c4ccccc4)c3C2=O)cc1,27,30.6,29.5,45.8,33.2,
COCC12CCC(OC)C34C5CC6(O)C(OC)C=C(C5C6OC(=O)c5ccccc5)C(C(OC)C13)C4N(C)C2 (stereo unspecified),> 100,> 100,> 100,> 100,> 100,
CO[C@H]1O[C@@H]2OC3(C)CCC4[C@H](C)CCC([C@H]1C)[C@]42OO3 (stereo partly specified),> 100,> 100,> 100,> 100,> 100,
C/C(=N\O)C1CC2C=C(C#N)C1N(Cc1ccccc1)C2 (stereo unspecified),> 100,,> 100,> 100,,
O=C(NCCc1ccccc1)c1cc(/C=C/c2cc(O)ccc2O)ccc1O,> 40.3,11.3,15.9,5.07,4.32,

SMILES,TGI [1] [µM],TGI [2] [µM],TGI [3] [µM],TGI [4] [µM],TGI [5] [µM],other results
CCCCCC#COC1CC(C)CC[C@@H]1C(C)C (stereo partly specified),31.9,79.5,> 100,> 100,52.2,TGI [6]: > 100 µM; TGI [8]: > 100 µM; TGI [11]: > 100 µM; TGI [12]: > 100 µM; TGI [9]: > 100 µM; TGI [10]: > 100 µM; TGI [13]: > 100 µM
O=C(/C=C/c1ccc(O)c(O)c1)NC(COC(=O)/C=C/c1ccc(O)c(O)c1)C(=O)O (stereo unspecified),> 100,> 100,> 100,> 100,> 100,
Cc1ccc(SCC(CF)OC(C)n2cnc3c(Cl)nc(N)nc32)cc1 (stereo unspecified),> 100,> 100,> 100,> 100,36.1,
C/C(=C\CNc1ncnc2c1ncn2CCC(=O)OC(C)(C)C)CO,> 100,> 100,> 100,> 100,> 100,
CC(=O)O[C@H]1CC[C@@]2(C)C(=CC[C@@H]3[C@@H]2CC[C@](C)(c2nnc(C)o2)[C@H]3CC#N)C1,> 100,> 100,> 100,> 100,> 100,
CC(C)COP(C)(=O)C(N)(C(F)(F)F)C(F)(F)F (stereo unspecified),> 100,> 100,> 100,> 100,,
N#Cc1ccc(C(C2C(=O)NC(=O)NC2=O)C2C(=O)NC(=O)NC2=O)cc1,> 100,> 100,> 100,> 100,> 100,TGI [8]: > 100 µM; TGI [12]: > 100 µM; TGI [9]: > 100 µM; TGI [10]: > 100 µM
Cc1c(-c2nc(N)c(C#N)c(N)c2C#N)c(=O)oc2ccccc12,> 100,> 100,> 100,> 100,,
COC(=O)[C@]1(C)CCC[C@]2(C)[C@@H](CCC(=O)C(C)C)[C@]3(C=O)O[C@@H]3C[C@H]21,> 100,,> 100,> 100,46.6,
CCCCOC(=O)NC(Nc1ccc(S(=O)(=O)Nc2ncccn2)cc1)(C(F)(F)F)C(F)(F)F,> 100,> 100,> 100,> 100,> 100,
COc1cc(/C=C/C(=O)c2ccc(F)cc2)ccc1OCCCCCOc1cc2c(cc1OC)C(=O)N1CCCC1C=N2 (stereo unspecified),0.0258,11.3,0.266,0.439,0.249,GI50 [1]: < 0.01 µM; GI50 [2]: 0.0646 µM; GI50 [3]: 0.0491 µM; GI50 [4]: 0.212 µM; GI50 [5]: 0.0318 µM
O=C(Oc1c(Br)cc(Br)cc1C(=O)Oc1ccccc1)C(=O)Oc1c(Br)cc(Br)cc1C(=O)Oc1ccccc1,,> 100,> 100,59.2,32.6,
Cc1cc(C)c(S(=O)(=O)N(CCCN)OCCON(CCCN)S(=O)(=O)c2c(C)cc(C)cc2C)c(C)c1,> 24.9,4.67,> 100,3.8,13.6,
Fc1cccc(C2SCc3nc4cc5ccccc5cc4n32)c1 (stereo unspecified),> 100,> 100,> 100,> 100,,
CC(CNC(=O)c1ccccc1)(CNC(=O)c1ccccc1)[N+](=O)[O-],,> 100,> 100,> 100,> 100,
C(=N\NC1=NCCN1)/c1cccc2cc3ccncc3nc12,3.8,15.8,28.3,23.4,11.9,
Oc1c(Cl)c(Cl)c(O)c(CCNc2nccs2)c1Cl,> 100,17.9,36,54.9,,
C=C1CC(C)(COc2cc(=O)oc3ccccc23)OC1=O (stereo unspecified),5.08,12.5,2.95,6.6,5.2,
CCOC(=O)Nc1n[nH]nc1Cl,,> 100,> 100,> 100,> 100,
CCN(CC)C(=S)N/N=C/c1cc(OC)ccc1O,5.71,> 100,16.6,> 100,> 100,
